Article PMC2723102, “The interactome of the amyloid β precursor protein family members is shaped by phosphorylation of their intracellular domains” (Molecular Neurodegeneration, 2009)

Key:
Format in all cases: binding
GST-Grb2 = biological target: T1, GST-Grb2 (Homo sapiens, UniProt P62993); assay: BIAcore surface plasmon resonance, GST-Grb2; conditions: SPR, BIAcore 3000, strep-tag peptide amine coupled to CM-5 chip (4500–7500 RU), analyte GST-Grb2
T1 construct: All these targets analyzed contain either an SH2 or a PTB domain fused to GST; made in house; host or cells: bacterial cultures
Description: (§1) Binding of GST and GST-Grb2, NUMB p71, and X11β domains to strep-tag AID peptide or different phosphorylation forms was monitored by surface plasmon resonance (SPR) on a BIAcore 3000 machine (BIAcore, Neuchâtel, Switzerland). The strep-tag peptide and different phosphorylation forms of AID peptides were covalently amine coupled to a CM-5 sensor chip by use of the amine covalent coupling. An immobilization level of 4500–7500 resonance units was obtained. A nonderivatized flowcell serves as a reference surface. Interactions between GST and GST-Grb2, NUMB p71, and X11β to strep-tag peptides were determined by the change in signal measured in RU.

GST-X11β = biological target: T2, GST-X11β (Homo sapiens, UniProt Q99767); assay: BIAcore surface plasmon resonance, GST-X11β; conditions: SPR, BIAcore 3000, strep-tag peptide amine coupled to CM-5 chip (4500–7500 RU), analyte GST-X11β
T2 construct: All these targets analyzed contain either an SH2 or a PTB domain fused to GST; made in house; host or cells: bacterial cultures
T2 sequence (Q99767 368-555 limits assumed): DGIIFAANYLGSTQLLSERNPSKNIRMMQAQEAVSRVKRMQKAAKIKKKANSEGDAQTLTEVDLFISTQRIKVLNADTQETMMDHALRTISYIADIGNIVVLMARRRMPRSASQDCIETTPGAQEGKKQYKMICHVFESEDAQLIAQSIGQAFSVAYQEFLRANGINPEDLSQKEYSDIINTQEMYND
Description: as §1

GST-NUMB-p71 = biological target: T3, GST-NUMB-p71 (Homo sapiens, UniProt P49757); assay: BIAcore surface plasmon resonance, GST-NUMB-p71; conditions: SPR, BIAcore 3000, strep-tag peptide amine coupled to CM-5 chip (4500–7500 RU), analyte GST-NUMB-p71
T3 construct: All these targets analyzed contain either an SH2 or a PTB domain fused to GST; made in house; host or cells: bacterial cultures
T3 sequence (P49757 33-182 isoform P49757-3): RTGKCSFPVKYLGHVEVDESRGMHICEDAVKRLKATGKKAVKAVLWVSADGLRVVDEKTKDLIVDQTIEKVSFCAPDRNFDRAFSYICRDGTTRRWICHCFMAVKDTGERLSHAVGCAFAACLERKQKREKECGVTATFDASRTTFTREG
Description: as §1

T1 sequence (P62993 60-152 limits assumed): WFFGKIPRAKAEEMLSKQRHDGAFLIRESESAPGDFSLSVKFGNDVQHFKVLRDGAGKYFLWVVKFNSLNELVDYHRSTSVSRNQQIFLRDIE

Work on `CC[C@H](C)[C@H](NC(=O)[C@H](CO)NC(=O)[C@@H](NC(=O)[C@H](Cc1ccc(O)cc1)NC(=O)[C@H](CCC(N)=O)NC(=O)[C@H](CCCCN)NC(=O)[C@H](CCCCN)NC(=O)[C@H](CCCCN)NC(=O)[C@H](CC(C)C)NC(=O)[C@H](CCSC)NC(=O)[C@@H](N)C(C)C)[C@@H](C)O)C(=O)N[C@@H](Cc1c[nH]cn1)C(=O)N[C@@H](Cc1c[nH]cn1)C(=O)NCC(=O)N[C@H](C(=O)N[C@H](C(=O)N[C@@H](CCC(=O)O)C(=O)N[C@H](C(=O)N[C@@H](CC(=O)O)C(=O)N[C@@H](C)C(=O)N[C@@H](C)C(=O)N[C@H](C(=O)N[C@H](C(=O)N1CCC[C@H]1C(=O)N[C@@H](CCC(=O)O)C(=O)N[C@@H](CCC(=O)O)C(=O)N[C@@H](CCCNC(=N)N)C(=O)N[C@@H](Cc1c[nH]cn1)C(=O)N[C@@H](CC(C)C)C(=O)N[C@@H](CO)C(=O)N[C@@H](CCCCN)C(=O)N[C@@H](CCSC)C(=O)N[C@@H](CCC(N)=O)C(=O)N[C@@H](CCC(N)=O)C(=O)N[C@@H](CC(N)=O)C(=O)NCC(=O)N[C@@H](Cc1ccc(OP(=O)(O)O)cc1)C(=O)N[C@@H](CCC(=O)O)C(=O)N[C@@H](CC(N)=O)C(=O)N1CCC[C@H]1C(=O)N[C@H](C(=O)N[C@@H](Cc1ccc(O)cc1)C(=O)N[C@@H](CCCCN)C(=O)N[C@@H](Cc1ccccc1)C(=O)N[C@@H](Cc1ccccc1)C(=O)N[C@@H](CCC(=O)O)C(=O)N[C@@H](CCC(N)=O)C(=O)N[C@@H](CCSC)C(=O)N[C@@H](CCC(N)=O)C(=O)N[C@@H](CC(N)=O)C(=O)O)[C@@H](C)O)[C@@H](C)OP(=O)(O)O)C(C)C)C(C)C)C(C)C)C(C)C` [AIDpTpY] yielded a Kd (GST-Grb2) of 0.413 nM and a Kd (GST-X11β) of 13.1 nM.
In the case of `CC[C@H](C)[C@H](NC(=O)[C@H](CO)NC(=O)[C@@H](NC(=O)[C@H](Cc1ccc(O)cc1)NC(=O)[C@H](CCC(N)=O)NC(=O)[C@H](CCCCN)NC(=O)[C@H](CCCCN)NC(=O)[C@H](CCCCN)NC(=O)[C@H](CC(C)C)NC(=O)[C@H](CCSC)NC(=O)[C@@H](N)C(C)C)[C@@H](C)O)C(=O)N[C@@H](Cc1c[nH]cn1)C(=O)N[C@@H](Cc1c[nH]cn1)C(=O)NCC(=O)N[C@H](C(=O)N[C@H](C(=O)N[C@@H](CCC(=O)O)C(=O)N[C@H](C(=O)N[C@@H](CC(=O)O)C(=O)N[C@@H](C)C(=O)N[C@@H](C)C(=O)N[C@H](C(=O)N[C@H](C(=O)N1CCC[C@H]1C(=O)N[C@@H](CCC(=O)O)C(=O)N[C@@H](CCC(=O)O)C(=O)N[C@@H](CCCNC(=N)N)C(=O)N[C@@H](Cc1c[nH]cn1)C(=O)N[C@@H](CC(C)C)C(=O)N[C@@H](CO)C(=O)N[C@@H](CCCCN)C(=O)N[C@@H](CCSC)C(=O)N[C@@H](CCC(N)=O)C(=O)N[C@@H](CCC(N)=O)C(=O)N[C@@H](CC(N)=O)C(=O)NCC(=O)N[C@@H](Cc1ccc(OP(=O)(O)O)cc1)C(=O)N[C@@H](CCC(=O)O)C(=O)N[C@@H](CC(N)=O)C(=O)N1CCC[C@H]1C(=O)N[C@H](C(=O)N[C@@H](Cc1ccc(O)cc1)C(=O)N[C@@H](CCCCN)C(=O)N[C@@H](Cc1ccccc1)C(=O)N[C@@H](Cc1ccccc1)C(=O)N[C@@H](CCC(=O)O)C(=O)N[C@@H](CCC(N)=O)C(=O)N[C@@H](CCSC)C(=O)N[C@@H](CCC(N)=O)C(=O)N[C@@H](CC(N)=O)C(=O)O)[C@@H](C)O)[C@@H](C)O)C(C)C)C(C)C)C(C)C)C(C)C` [AIDpY], the Kd (GST-Grb2) is reported as 2.57 nM and the Kd (GST-NUMB-p71) is reported as 997 nM.
